Where “and” joins values, the source holds several entries; their conditions need not be identical. Equal values may be shown once. After the bases stand the sugars from the 5' end (letter, count) and the backbone: PS all phosphorothioate, else s phosphorothioate and o phosphodiester by linkage. Methylation of C is not given here. e = 2'-O-(2-methoxyethyl) (MOE); k = constrained ethyl (cEt); d = 2'-deoxy (DNA)

These results are taken from the OligoGym collection.

The target of this series is APOL1. Conditions: ASO.

For “CTAATTTTCTGACTGT (sugars kkddddkekekddddd, PS)”, the target mRNA inhibition (A431, 2 µM) is 83%.
With “GTTCAAAAGCAGCATT (sugars k3 d5 k3 d5, PS)”, the target mRNA inhibition (A431, 2 µM) came to 90%.
Same read-out and setting: next, “TTATACCAGTGTCTTC (sugars kkddddkekekkdddd, PS)”: 68%.
On to CCTTACTGCAGTTTCA (sugars k4 d9 k3, PS), for which the target mRNA inhibition (A431, 0.0625 µM) came out at 47%; the target mRNA inhibition (A431, 0.25 µM) was 79%; the target mRNA inhibition (A431, 1 µM) came to 91%.
On to “TTCTATTAGAGGGCTA (sugars kkddddkekekddddd, PS)”, for which the target mRNA inhibition (A431, 2 µM) was 53%.
For the sequence GATTTTTCTTTGACCG (sugars k4 d9 k3, PS), the target mRNA inhibition (A431, 0.0625 µM) was 80% and 81%; the target mRNA inhibition (A431, 0.25 µM) was 95% and 94%; the target mRNA inhibition (A431, 1 µM) was 99% and 98%.
Under “A431, 2 µM”, “TTATGAAATTATTGGT (sugars k3 d4 k3 e1 d5, PS)” showed a target mRNA inhibition of 85%.
On to “TCTATTAGAGGGCTAG (sugars k2 d4 e3 k2 d5, PS)”, for which the target mRNA inhibition (A431, 2 µM) amounted to 67%.
Take CCACATTTGAGATTAT (sugars k4 d9 k3, PS): the target mRNA inhibition reads like this: (A431, 0.0625 µM) 37%; (A431, 0.25 µM) 72%; (A431, 1 µM) 90%.
In turn, “AATTATGGAATTGCAG (sugars kddddkekekeddddd, PS)” showed a target mRNA inhibition (A431, 2 µM) of 55%.
Regarding “GAATTATGGAATTGCA (sugars kkdddddkekeddddd, PS)”, the target mRNA inhibition (A431, 0.0156 µM) stood at 17%; the target mRNA inhibition (A431, 0.0625 µM) was 38%; the target mRNA inhibition (A431, 0.25 µM) stood at 75%; the target mRNA inhibition (A431, 1 µM) was 86%; the target mRNA inhibition (A431, 2 µM) is 92%.
For GCGATTGTCTTGTTTT (sugars k4 d9 k3, PS), the target mRNA inhibition was 64% and 78% (A431, 0.0625 µM); 87% and 89% (A431, 0.25 µM); 93% (A431, 1 µM).
In the case of TGTCTTGCAAGGTTGT (sugars k4 d9 k3, PS), the target mRNA inhibition worked out at 57% (A431, 0.0625 µM); 73% (A431, 0.25 µM); 84% (A431, 1 µM).
“AACGCAATGCTGACTT (sugars k3 d4 k3 e1 d5, PS)”: the target mRNA inhibition (A431, 0.0156 µM) amounted to 3%; the target mRNA inhibition (A431, 0.0625 µM) was found to be 24%; the target mRNA inhibition (A431, 0.25 µM) amounted to 54%; the target mRNA inhibition (A431, 1 µM) turned out to be 80%; the target mRNA inhibition (A431, 2 µM) worked out at 91%.
Under “A431, 2 µM”, “AAGTATTGCCAGCTAA (sugars kkddddkekekddddd, PS)” had a target mRNA inhibition of 62%.
GACTTGTTTTATGGAG (sugars k4 d9 k3, PS): the target mRNA inhibition is 75% (A431, 0.0625 µM); 88% (A431, 0.25 µM); 92% (A431, 1 µM).
In the case of “CATTCAGAATTTCCAC (sugars kkkddddkekekdddd, PS)”, the target mRNA inhibition (A431, 2 µM) was determined as 65%.
Regarding “ATTCTCATGGTACAGG (sugars k2 d4 e3 k2 d5, PS)”, the target mRNA inhibition came to 13% (A431, 0.0156 µM); 34% (A431, 0.0625 µM); 72% (A431, 0.25 µM); 90% (A431, 1 µM); 92% (A431, 2 µM).
Regarding “AATTCTATTAGAGGGC (sugars k2 d4 e3 k2 d5, PS)”, the target mRNA inhibition (A431, 2 µM) amounted to 73%.
Turning to ACTGAGGGTATATGAA (sugars k4 d9 k3, PS), the target mRNA inhibition was 22% (A431, 0.0625 µM); 40% (A431, 0.25 µM); 58% (A431, 1 µM).
For the setting “A431, 2 µM”, “TTATATTTGATCCTCA (sugars k3 d4 k3 e1 d5, PS)” yielded a target mRNA inhibition of 96%.
Take CCAGCAAAGACAAGAA (sugars k4 d9 k3, PS): the target mRNA inhibition (A431, 0.0625 µM) was 9% and 0%; the target mRNA inhibition (A431, 0.25 µM) is 49% and 30%; the target mRNA inhibition (A431, 1 µM) is 64% and 55% and 50%.
As to “GAGTATTGTTTTTGTG (sugars kdddddkekekddddd, PS)”, the target mRNA inhibition (A431, 2 µM) stood at 90%.
“ACACATCATTGGGTTA (sugars kkdddddkekeddddd, PS)” gave a target mRNA inhibition (A431, 2 µM) of 72%.
“ATCAGATGGGTACTTC (sugars kkddddkekekddddd, PS)” returned a target mRNA inhibition (A431, 2 µM) of 66%.
Consider “TATCAGATGGGTACTT (sugars k3 d4 k3 e1 d5, PS)”, for which the target mRNA inhibition (A431, 2 µM) came out at 69%.
Take GTAAGTGCTTTGATTC (sugars k4 d9 k3, PS): the target mRNA inhibition runs as follows: (A431, 0.0625 µM) 64%; (A431, 0.25 µM) 83%; (A431, 1 µM) 92%.
In the case of “TGAGTATTGTTTTTGT (sugars k3 d4 k3 e1 d5, PS)”, the target mRNA inhibition (A431, 0.0156 µM) was 43%; the target mRNA inhibition (A431, 0.0625 µM) is 69%; the target mRNA inhibition (A431, 0.25 µM) is 88%; the target mRNA inhibition (A431, 1 µM) worked out at 94%; the target mRNA inhibition (A431, 2 µM) amounted to 95%.
Regarding CAGTTCCCATTTTTCC (sugars k4 d9 k3, PS), the target mRNA inhibition was found to be 62% (A431, 0.0625 µM); 83% (A431, 0.25 µM); 94% (A431, 1 µM).
For the setting “A431, 2 µM”, “GCTAATTTTCTGACTG (sugars kddddkekekeddddd, PS)” returned a target mRNA inhibition of 88%.
Take “GTATTTCTTGATGTGG (sugars kkkddddkekekdddd, PS)”: the target mRNA inhibition (A431, 2 µM) turned out to be 73%.
Turning to “TTATGAAATTATTGGT (sugars kkddddkdkdkddddd, PS)”, under “A431, 2 µM”, the target mRNA inhibition is 47%.
The same measure, in the same setting: the value for “CTTTAAACTCAGGTGA (sugars kdddddkekekddddd, PS)” was 77%.
In the case of TTTAGAAAGGACACGG (sugars k4 d9 k3, PS), the target mRNA inhibition was determined as 42% (A431, 0.0625 µM); 73% (A431, 0.25 µM); 90% (A431, 1 µM).
“ACATCATTGGGTTATG (sugars kkddddkekekkdddd, PS)” yielded a target mRNA inhibition (A431, 2 µM) of 70%.
Consider CAAGGTTGTCCAGAGC (sugars k4 d9 k3, PS), for which the target mRNA inhibition turned out to be 31% (A431, 0.0625 µM); 58% (A431, 0.25 µM); 64% (A431, 1 µM).
For GTTTTGTTGCACCCTC (sugars k4 d9 k3, PS) the same measures were 65%, 82% and 95%.
In the case of GTATTGCCAGCTAAGG (sugars k4 d9 k3, PS), the target mRNA inhibition reads like this: (A431, 0.0625 µM) 56%; (A431, 0.25 µM) 85%; (A431, 1 µM) 94%.
Regarding “TTATTCTCATGGTACA (sugars kkddddekekeddddd, PS)”, the target mRNA inhibition (A431, 2 µM) is 51%.
Under “A431, 2 µM”, “GAATTATGGAATTGCA (sugars k2 d4 e3 k2 d5, PS)” gave a target mRNA inhibition of 94%.
Turning to “GAGTATTGTTTTTGTG (sugars k2 d4 e3 k2 d5, PS)”, the target mRNA inhibition stood at 38% (A431, 0.0156 µM); 72% (A431, 0.0625 µM); 91% (A431, 0.25 µM); 96% (A431, 1 µM); 97% (A431, 2 µM).
Regarding “TATTCTCATGGTACAG (sugars kkkddddkekeddddd, PS)”, the target mRNA inhibition (A431, 2 µM) was 68%.
Sequence “GCATTCAGAATTTCCA (sugars k2 d4 e3 k2 d5, PS)” gave a target mRNA inhibition (A431, 0.0156 µM) of 39%; a target mRNA inhibition (A431, 0.0625 µM) of 72%; a target mRNA inhibition (A431, 0.25 µM) of 91%; a target mRNA inhibition (A431, 1 µM) of 97%; a target mRNA inhibition (A431, 2 µM) of 98%.
For the sequence ATGTCTCAAACTCCAC (sugars k4 d9 k3, PS), the target mRNA inhibition came out at 29% (A431, 0.0625 µM); 63% (A431, 0.25 µM); 83% (A431, 1 µM).
